Each compound was assayed against T1, human DGAT2 (Homo sapiens, UniProt Q96PD7) (assay: DGAT2 Enzymatic Activity Assay). Settings: membrane prep of Sf-9 insect cells expressing hDGAT2; 13C18-triolein product by LC/MS/MS; 25 μM diolein, 5 μM 13C oleoyl-CoA.
T1 construct: made in house; host or cells: Sf-9 insect cells (baculovirus), membrane fraction
T1 sequence (Q96PD7 1-388): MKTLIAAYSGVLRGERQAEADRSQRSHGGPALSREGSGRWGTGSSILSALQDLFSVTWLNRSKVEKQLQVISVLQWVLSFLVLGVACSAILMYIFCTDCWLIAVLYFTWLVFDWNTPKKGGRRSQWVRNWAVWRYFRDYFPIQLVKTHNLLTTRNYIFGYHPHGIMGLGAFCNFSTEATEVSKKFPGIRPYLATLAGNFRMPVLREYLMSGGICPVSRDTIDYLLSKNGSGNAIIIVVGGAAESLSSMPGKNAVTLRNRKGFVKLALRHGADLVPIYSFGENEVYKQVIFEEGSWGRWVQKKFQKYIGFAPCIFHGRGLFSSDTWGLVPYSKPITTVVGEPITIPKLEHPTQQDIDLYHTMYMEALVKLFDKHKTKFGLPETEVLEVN
Assay type: biochemical
Description: Sf-9 insect cells were maintained in Grace's insect cell culture medium with 10% heated-inactivated fetal bovine serum, 1% Pluronic F-68 and 0.14 μg/ml Kanamycine sulfate at 27° C. in a shaker incubator. After infection with untagged baculovirus expressing human DGAT2 (hDGAT2) at multiplicity of infection (MOI) 3 for 48 hours, cells were harvested. Cell pellets were suspended in buffer containing 10 mM Tris-HCl pH 7.5, 1 mM EDTA, 250 mM sucrose and Complete Protease Inhibitor Cocktail (Sigma Aldrich), and sonicated on ice. Cell debris were removed by centrifugation at 2000×g for 15 minutes. Membrane fractions were isolated by ultracentrifugation (100,000×g), resuspended in the same buffer, and frozen (−80° C.) for later use. The protein concentration was determined with the Pierce™ BCA Protein Assay Kit (Thermo Fisher Scientific).
LC/MS/MS analyses were performed using Thermal Fisher's LX4-TSQ Vantage system. This system consists of an Agilent binary high-performance liquid chromatography (HPLC) pump and a TSQ Vantage triple quadrupole MS/MS instrument. For each sample, 2 μL samples from the top organic layer of in-plate liquid-liquid extraction were injected onto a Thermo Betabasic C4 column (2.1 mm×20 mm, 5 μm particle size). The samples were then eluted using the following conditions; mobile phase: Isopropanol:acetonitrile/10 mM ammonium formate=50/35/15 (v/v/v), flow rate: 0.8 mL/min, temperature: 25° C. Data was acquired in positive mode using a heated electrospray ionization (HESI) interface. […] The peak area was integrated by Xcalibur Quan software. The ratio between the ^13C18triolein generated in the reaction and spiked in internal standard ^13C21-triolein was used to generate percentage inhibition and IC50 values. Compound percentage inhibition was calculated by the following formula: Inhibition %=1−[(compound response−low control)/(high control−low control)]×100%.
DGAT2 activity was determined by measuring the amount of enzymatic product ^13C18-triolein (^13C-1,2,3-Tri(cis-9-octadecenoyl)glycerol) using the membrane prep mentioned above. The assay was carried out in ABgene 384-well assay plates in a final volume of 25 μL at rt.
For `CN1C(C)(C)C(NC(=O)c2cc3cc(Oc4ncccc4OCC(F)(F)F)ccn3n2)CS1(=O)=O` (racemic) [Example 2, 5-((3-(2,2,2-Trifluoroethoxy)pyridin-2-yl)oxy)-N-(2,3,3-trimethyl-1,1-dioxidoisothiazolidin-4-yl)pyrazolo[1,5-a]pyridine-2-carboxamide], the IC50 was 787 nM. For `CC1(NC(=O)c2cc3cc(Oc4ncc(C(O)C5CC5)cc4OCC(F)(F)F)ccn3n2)CCS(=O)(=O)CC1` (single isomer, unassigned) [Example 43a, 5-((5-(Cyclopropyl(hydroxy)methyl)-3-(2,2,2-trifluoroethoxy)pyridin-2-yl)oxy)-N-(4-methyl-1,1-dioxidotetrahydro-2H-thiopyran-4-yl)pyrazolo[1,5-a]pyridine-2-carboxamide], the IC50 was 228 nM. `CC1(NC(=O)c2cc3cc(Oc4ncc(C(O)C5CC5)cc4OCC(F)(F)F)ccn3n2)CCS(=O)(=O)CC1` (single isomer, unassigned) [Example 43b, 5-((5-(Cyclopropyl(hydroxy)methyl)-3-(2,2,2-trifluoroethoxy)pyridin-2-yl)oxy)-N-(4-methyl-1,1-dioxidotetrahydro-2H-thiopyran-4-yl)pyrazolo[1,5-a]pyridine-2-carboxamide] was tested, and the IC50 was over 9990 nM. Compound `CC(O)c1cnc(Oc2ccn3nc(C(=O)NC4(C)CCS(=O)(=O)CC4)cc3c2)c(OCC(F)(F)F)c1` (single isomer, unassigned) [Example 44a, 5-((5-(1-Hydroxyethyl)-3-(2,2,2-trifluoroethoxy)pyridin-2-yl)oxy)-N-(4-methyl-1,1-dioxidotetrahydro-2H-thiopyran-4-yl)pyrazolo[1,5-a]pyridine-2-carboxamide] has an IC50 of 111 nM. In the case of `CC(O)c1cnc(Oc2ccn3nc(C(=O)NC4(C)CCS(=O)(=O)CC4)cc3c2)c(OCC(F)(F)F)c1` (single isomer, unassigned) [Example 44b, 5-((5-(1-Hydroxyethyl)-3-(2,2,2-trifluoroethoxy)pyridin-2-yl)oxy)-N-(4-methyl-1,1-dioxidotetrahydro-2H-thiopyran-4-yl)pyrazolo[1,5-a]pyridine-2-carboxamide], the IC50 is reported as 332 nM. For `CC1(NC(=O)c2cc3cc(Oc4ncc(C(O)C(F)(F)F)cc4OCC(F)(F)F)ccn3n2)CS(=O)(=O)C1` (single isomer, unassigned) [Example 45a, N-(3-Methyl-1,1-dioxidothietan-3-yl)-5-((5-(2,2,2-trifluoro-1-hydroxyethyl)-3-(2,2,2-trifluoroethoxy)pyridin-2-yl)oxy)pyrazolo[1,5-a]pyridine-2-carboxamide], the IC50 was over 9990 nM. Work on `CC1(NC(=O)c2cc3cc(Oc4ncc(C(O)C(F)(F)F)cc4OCC(F)(F)F)ccn3n2)CS(=O)(=O)C1` (single isomer, unassigned) [Example 45b, N-(3-Methyl-1,1-dioxidothietan-3-yl)-5-((5-(2,2,2-trifluoro-1-hydroxyethyl)-3-(2,2,2-trifluoroethoxy)pyridin-2-yl)oxy)pyrazolo[1,5-a]pyridine-2-carboxamide] yielded an IC50 of 1560 nM. In the case of `CC(O)c1c(C(=O)NC2(C)CCS(=O)(=O)CC2)nn2ccc(Oc3ncccc3OCC(F)(F)F)cc12` (single isomer, unassigned) [Example 52a, 3-(1-Hydroxyethyl)-N-(4-methyl-1,1-dioxidotetrahydro-2H-thiopyran-4-yl)-5-((3-(2,2,2-trifluoroethoxy)pyridin-2-yl)oxy)pyrazolo[1,5-a]pyridine-2-carboxamide], the IC50 is reported as 1590 nM. `CC(O)c1c(C(=O)NC2(C)CCS(=O)(=O)CC2)nn2ccc(Oc3ncccc3OCC(F)(F)F)cc12` (single isomer, unassigned) [Example 52b, 3-(1-Hydroxyethyl)-N-(4-methyl-1,1-dioxidotetrahydro-2H-thiopyran-4-yl)-5-((3-(2,2,2-trifluoroethoxy)pyridin-2-yl)oxy)pyrazolo[1,5-a]pyridine-2-carboxamide] showed an IC50 of 333 nM. For `CC1(NC(=O)c2cc3cc(Oc4ncccc4OCC(F)(F)F)ccn3n2)CCS(=O)(=O)CC1` [Example 1, N-(4-Methyl-1,1-dioxidotetrahydro-2H-thiopyran-4-yl)-5-((3-(2,2,2-trifluoroethoxy)pyridin-2-yl)oxy)pyrazolo[1,5-a]pyridine-2-carboxamide], the IC50 was 9.7 nM. `CC(C)(CNS(C)(=O)=O)NC(=O)c1cc2cc(Oc3ncccc3OCC(F)(F)F)ccn2n1` [Example 3, N-(2-Methyl-1-(methylsulfonamido)propan-2-yl)-5-((3-(2,2,2-trifluoroethoxy)pyridin-2-yl)oxy)pyrazolo[1,5-a]pyridine-2-carboxamide] gave an IC50 of 694 nM. `O=C(NC1CCCN(CC(F)(F)F)C1=O)c1cc2cc(Oc3ncccc3OCC(F)(F)F)ccn2n1` (centres unmarked) [Example 4, N-(2-Oxo-1-(2,2,2-trifluoroethyl)piperidin-3-yl)-5-((3-(2,2,2-trifluoroethoxy)pyridin-2-yl)oxy)pyrazolo[1,5-a]pyridine-2-carboxamide] was tested, and the IC50 was 309 nM. `CC1(NC(=O)c2cc3cc(Oc4ncccc4OCC(F)(F)F)ccn3n2)CS(=O)(=O)C1` [Example 5, N-(3-Methyl-1,1-dioxidothietan-3-yl)-5-((3-(2,2,2-trifluoroethoxy)pyridin-2-yl)oxy)pyrazolo[1,5-a]pyridine-2-carboxamide] showed an IC50 of 149 nM. `O=C(N[C@H]1CCOC1)c1cc2cc(Oc3ncccc3OCC(F)(F)F)ccn2n1` [Example 6, (S)-N-(Tetrahydrofuran-3-yl)-5-((3-(2,2,2-trifluoroethoxy)pyridin-2-yl)oxy)pyrazolo[1,5-a]pyridine-2-carboxamide] showed an IC50 of over 9990 nM. Compound `O=C(NC1CCCC1)c1cc2cc(Oc3ncccc3OCC(F)(F)F)ccn2n1` [Example 7, N-Cyclopentyl-5-((3-(2,2,2-trifluoroethoxy)pyridin-2-yl)oxy)pyrazolo[1,5-a]pyridine-2-carboxamide] has an IC50 of 1070 nM. Compound `C[C@@]1(NC(=O)c2cc3cc(Oc4nccnc4OCC(F)F)ccn3n2)CCS(=O)(=O)C1` [Example 8, (R)-5-((3-(2,2-Difluoroethoxy)pyrazin-2-yl)oxy)-N-(3-methyl-1,1-dioxidotetrahydrothiophen-3-yl)pyrazolo[1,5-a]pyridine-2-carboxamide] has an IC50 of 211 nM. For `CC1(NC(=O)c2cc3cc(Oc4nccnc4OCC(F)F)ccn3n2)CCS(=O)(=O)CC1` [Example 9, 5-((3-(2,2-Difluoroethoxy)pyrazin-2-yl)oxy)-N-(4-methyl-1,1-dioxidotetrahydro-2H-thiopyran-4-yl)pyrazolo[1,5-a]pyridine-2-carboxamide], the IC50 was 2.3 nM. `CC1(NC(=O)c2cc3cc(Oc4ncc(F)cc4OC4CC4)ccn3n2)CCS(=O)(=O)CC1` [Example 10, 5-((3-Cyclopropoxy-5-fluoropyridin-2-yl)oxy)-N-(4-methyl-1,1-dioxidotetrahydro-2H-thiopyran-4-yl)pyrazolo[1,5-a]pyridine-2-carboxamide] gave an IC50 of 85 nM. For `CC1(NC(=O)c2cc3cc(Oc4ncc(F)cc4OCC(F)F)ccn3n2)CS(=O)(=O)C1` [Example 11, 5-((3-(2,2-Difluoroethoxy)-5-fluoropyridin-2-yl)oxy)-N-(3-methyl-1,1-dioxidothietan-3-yl)pyrazolo[1,5-a]pyridine-2-carboxamide], the IC50 was 2.5 nM. `CC1(NC(=O)c2cc3cc(Oc4ncc(F)cc4OC4CC4)ccn3n2)CS(=O)(=O)C1` [Example 12, 5-((3-Cyclopropoxy-5-fluoropyridin-2-yl)oxy)-N-(3-methyl-1,1-dioxidothietan-3-yl)pyrazolo[1,5-a]pyridine-2-carboxamide] showed an IC50 of 1800 nM.

Source: patent US20260193249A1, “PREPARATION OF PYRAZOLOPYRIDINE AND TRIAZOLOPYRIDINE DERIVATIVES AS NOVEL DIACYLGLYCERIDE O-ACYLTRANSFERASE 2 INHIBITORS” (Merck Sharp & Dohme LLC, priority 2022, published 2026)
